Article PMC11062922 (Nature Chemical Biology, 2023)
Where “and” joins values, the source holds several entries; their conditions need not be identical. Equal values may be shown once. Read-outs that look alike come from different tables or passages of the source. One block for each compound: values may come before it.

How the values were obtained:
[1] = target: CSNK2A2 (Homo sapiens, UniProt P19784); assay: NanoBRET in-cell target engagement in HEK293T cells: CSNK2A2; type: cell-based; parameters: full-length PKN3, CSNK2A1 or CSNK2A2 ORF; host or cells: HEK293T
Method: The NanoBRET assay was performed as described previously[28],[58]. In brief, full-length PKN3, CSNK2A1 or CSNK2A2 ORF (PKN3 vector was a kind gift of Promega, Vectors for […]: NV2981, NV1191) cloned in frame with a C-terminal NanoLuc-fusion, respectively, were transfected into HEK293T cells using FuGENE HD (Promega, E2312) and proteins were allowed to express for 20 h. Serially diluted inhibitor and NanoBRET Kinase Tracer K5 (Promega, N2530) at 500 nM (PKN3) or NanoBRET Kinase Tracer K10 (Promega, N2840) at 500 nM ([…]) were pipetted into 384-well plates using an Echo acoustic dispenser (Labcyte). The PKN3, CSNK2A1 or CSNK2A2 transfected cells were added at a density of 2 × 10^5 cells per ml after trypsinization and resuspending in Opti-MEM without phenol red (Life Technologies). The system was allowed to equilibrate for 2 h at 37 °C and 5% CO2 before BRET measurements. BRET signaling was measured by adding NanoBRET NanoGlo Substrate and Extracellular NanoLuc Inhibitor (Promega) according to the manufacturer’s protocol. Filtered luminescence was measured on a PHERAstar plate reader (BMG Labtech) equipped with a luminescence filter pair (450 nm BP filter (donor) and 610 LP filter (acceptor)). Competitive displacement data were then graphed using GraphPad Prism software (v.5.01) using a three-parameter curve fit with the following equation Y=bottom+(top−bottom)/1+10^logIC50−X×hillslope
Experiments were performed with at least two biological and two technical replicates.

[2] = target: T1, endogenous kinases and other proteins enriched by Kinobeads from mixed lysates of K-562, COLO-205, MV-4-11, SK-N-BE(2) and OVCAR-8 (Homo sapiens, UniProt Q9H2G2); assay: Kinobeads competition binding profiling, two doses (100 nM and 1 µM); settings: SLK;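 also: inhibitor preincubated 45 min at 4 °C in cell lysate, then bead pulldown. Bound protein quantified by label-free mass spectrometry relative to DMSO vehicle control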
T1 construct: endogenous in cells

[3] = target: T2, endogenous kinases and other proteins enriched by Kinobeads from mixed lysates of K-562, COLO-205, MV-4-11, SK-N-BE(2) and OVCAR-8 (Homo sapiens, UniProt Q9Y6R4); assay: as above; settings: MAP3K4
T2 construct: to maximize the representation of endogenous proteins; endogenous in cells

[4] = target: T3, PRKACA (Homo sapiens, UniProt P17612); assay: Kinobeads full dose-response competition binding: PRKACA; settings: Gene Name PRKACA
T3 construct: a mixture of lysates from five cancer cell lines; endogenous in cells

[5] = target: T4, HSP90B1 (Homo sapiens, UniProt P14625); assay: Kinobeads two-dose competition binding: HSP90B1; settings: read-out: Lestaurtinib Drugmatrix value, Gene Name HSP90B1
T4 construct: endogenous in cells

[6] = target: T5, EPHB4 (Homo sapiens, UniProt P54760); assay: Kinobeads two-dose competition binding: EPHB4; settings: read-out: Lestaurtinib Drugmatrix value, Gene Name EPHB4; target EPHB4; each column = one Lestaurtinib control replicate (batch_R1-R3)
T5 construct: endogenous in cells
T5 sequence (P54760 16-987): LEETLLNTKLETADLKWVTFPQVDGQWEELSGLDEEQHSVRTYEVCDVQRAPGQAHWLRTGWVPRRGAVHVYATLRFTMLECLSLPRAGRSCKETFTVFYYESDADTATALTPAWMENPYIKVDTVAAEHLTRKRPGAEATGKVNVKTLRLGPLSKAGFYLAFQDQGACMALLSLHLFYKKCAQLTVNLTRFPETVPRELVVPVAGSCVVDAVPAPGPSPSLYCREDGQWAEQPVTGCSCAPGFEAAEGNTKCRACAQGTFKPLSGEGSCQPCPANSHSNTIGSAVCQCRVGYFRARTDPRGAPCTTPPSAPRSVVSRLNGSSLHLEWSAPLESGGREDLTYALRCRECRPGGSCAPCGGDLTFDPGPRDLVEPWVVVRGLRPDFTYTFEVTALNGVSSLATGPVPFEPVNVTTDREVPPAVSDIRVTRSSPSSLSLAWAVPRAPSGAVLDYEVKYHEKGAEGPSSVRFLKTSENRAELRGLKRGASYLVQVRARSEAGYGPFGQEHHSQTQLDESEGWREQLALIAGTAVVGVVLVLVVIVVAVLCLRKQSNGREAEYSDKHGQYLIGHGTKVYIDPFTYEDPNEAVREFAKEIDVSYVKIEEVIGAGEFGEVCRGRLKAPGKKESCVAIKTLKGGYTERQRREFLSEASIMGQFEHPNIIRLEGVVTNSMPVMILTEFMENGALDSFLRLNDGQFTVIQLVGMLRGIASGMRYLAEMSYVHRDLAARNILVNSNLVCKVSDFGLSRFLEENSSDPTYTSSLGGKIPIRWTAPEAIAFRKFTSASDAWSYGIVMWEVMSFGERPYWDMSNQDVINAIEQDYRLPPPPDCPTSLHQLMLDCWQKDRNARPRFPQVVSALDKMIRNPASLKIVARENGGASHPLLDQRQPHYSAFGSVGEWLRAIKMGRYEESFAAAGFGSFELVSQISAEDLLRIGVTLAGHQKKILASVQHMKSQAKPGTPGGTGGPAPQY

[7] = tested on: ERCC2; assay: Kinobeads two-dose competition binding: ERCC2; parameters: species or system human; settings: read-out: Lestaurtinib Drugmatrix value, Gene Name ERCC2; target ERCC2; each column = one Lestaurtinib control replicate (batch_R1-R3)
[8] = target: T6, CSK (Homo sapiens, UniProt P41240); assay: Kinobeads two-dose competition binding: CSK; settings: read-out: Lestaurtinib Drugmatrix value, Gene Name CSK
T6 construct: endogenous in cells

[9] = target: T7, EPHA4 (Homo sapiens, UniProt P54764); assay: Kinobeads two-dose competition binding: EPHA4; settings: read-out: Lestaurtinib Drugmatrix value, Gene Name EPHA4
T7 construct: endogenous in cells

[10] = target: T8, NTRK1 (Homo sapiens, UniProt P04629); assay: Kinobeads competition binding, Lestaurtinib control replicates: NTRK1; settings: read-out: Lestaurtinib Drugmatrix value, NTRK1; Gene Name NTRK1; one column per experiment number and replicate (R1-R3)
T8 construct: endogenous in cells
T8 sequence (P04629 33-796): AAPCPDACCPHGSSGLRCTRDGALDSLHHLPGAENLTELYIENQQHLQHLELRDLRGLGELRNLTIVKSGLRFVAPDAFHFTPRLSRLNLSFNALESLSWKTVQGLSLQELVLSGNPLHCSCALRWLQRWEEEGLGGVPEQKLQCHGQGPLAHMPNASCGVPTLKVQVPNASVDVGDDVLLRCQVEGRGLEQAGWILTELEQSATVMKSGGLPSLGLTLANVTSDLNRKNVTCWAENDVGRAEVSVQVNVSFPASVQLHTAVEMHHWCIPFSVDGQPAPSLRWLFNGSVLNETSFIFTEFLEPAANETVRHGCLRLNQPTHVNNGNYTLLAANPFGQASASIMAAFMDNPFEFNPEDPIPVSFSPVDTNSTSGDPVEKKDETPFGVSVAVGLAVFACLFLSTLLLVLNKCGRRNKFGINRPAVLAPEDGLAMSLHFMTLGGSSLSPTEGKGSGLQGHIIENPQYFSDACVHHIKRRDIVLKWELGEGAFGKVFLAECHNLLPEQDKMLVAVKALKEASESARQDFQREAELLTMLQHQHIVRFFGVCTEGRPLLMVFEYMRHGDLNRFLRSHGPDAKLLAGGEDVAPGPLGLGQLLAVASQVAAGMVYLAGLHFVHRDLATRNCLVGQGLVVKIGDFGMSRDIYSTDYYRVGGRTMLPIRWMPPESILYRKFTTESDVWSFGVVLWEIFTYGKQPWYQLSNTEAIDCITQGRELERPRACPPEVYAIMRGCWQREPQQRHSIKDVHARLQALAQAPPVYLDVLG

CSNK2A2, sequence (P19784 whole entry, the tested form may be a part): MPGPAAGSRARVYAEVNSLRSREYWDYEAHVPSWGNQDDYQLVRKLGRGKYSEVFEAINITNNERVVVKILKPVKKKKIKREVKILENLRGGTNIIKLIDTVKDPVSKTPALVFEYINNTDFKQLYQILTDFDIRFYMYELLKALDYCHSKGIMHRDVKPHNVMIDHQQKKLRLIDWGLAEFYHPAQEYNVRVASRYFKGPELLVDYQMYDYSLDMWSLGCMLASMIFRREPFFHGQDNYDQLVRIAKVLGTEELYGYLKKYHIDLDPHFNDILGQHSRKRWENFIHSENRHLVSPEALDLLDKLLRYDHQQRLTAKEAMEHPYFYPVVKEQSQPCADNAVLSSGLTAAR
T7 sequence (P54764 20-986): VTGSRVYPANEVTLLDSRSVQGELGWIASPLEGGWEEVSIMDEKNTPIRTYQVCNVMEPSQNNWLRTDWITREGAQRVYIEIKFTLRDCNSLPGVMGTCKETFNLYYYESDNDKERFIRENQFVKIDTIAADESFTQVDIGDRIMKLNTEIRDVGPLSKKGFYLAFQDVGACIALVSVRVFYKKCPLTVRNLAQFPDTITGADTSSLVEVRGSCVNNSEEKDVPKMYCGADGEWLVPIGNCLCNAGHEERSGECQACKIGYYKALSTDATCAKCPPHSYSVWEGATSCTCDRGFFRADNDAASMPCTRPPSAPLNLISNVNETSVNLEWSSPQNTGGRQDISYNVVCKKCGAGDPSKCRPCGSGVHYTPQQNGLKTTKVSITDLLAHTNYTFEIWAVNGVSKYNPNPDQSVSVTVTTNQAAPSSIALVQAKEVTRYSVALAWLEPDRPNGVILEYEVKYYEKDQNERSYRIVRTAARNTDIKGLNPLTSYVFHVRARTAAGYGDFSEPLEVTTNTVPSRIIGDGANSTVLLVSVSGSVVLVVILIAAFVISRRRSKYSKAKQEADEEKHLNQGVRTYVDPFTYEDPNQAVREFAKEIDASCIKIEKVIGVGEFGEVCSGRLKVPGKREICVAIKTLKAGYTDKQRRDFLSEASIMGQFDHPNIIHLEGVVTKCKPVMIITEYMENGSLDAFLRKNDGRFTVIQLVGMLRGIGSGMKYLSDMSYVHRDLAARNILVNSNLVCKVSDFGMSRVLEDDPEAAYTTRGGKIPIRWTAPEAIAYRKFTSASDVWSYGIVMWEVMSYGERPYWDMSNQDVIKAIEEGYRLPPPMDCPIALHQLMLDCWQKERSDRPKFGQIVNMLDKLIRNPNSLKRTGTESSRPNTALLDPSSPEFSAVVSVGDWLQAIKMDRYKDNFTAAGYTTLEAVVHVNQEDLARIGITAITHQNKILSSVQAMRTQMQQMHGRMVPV
T1 sequence (Q9H2G2 whole entry): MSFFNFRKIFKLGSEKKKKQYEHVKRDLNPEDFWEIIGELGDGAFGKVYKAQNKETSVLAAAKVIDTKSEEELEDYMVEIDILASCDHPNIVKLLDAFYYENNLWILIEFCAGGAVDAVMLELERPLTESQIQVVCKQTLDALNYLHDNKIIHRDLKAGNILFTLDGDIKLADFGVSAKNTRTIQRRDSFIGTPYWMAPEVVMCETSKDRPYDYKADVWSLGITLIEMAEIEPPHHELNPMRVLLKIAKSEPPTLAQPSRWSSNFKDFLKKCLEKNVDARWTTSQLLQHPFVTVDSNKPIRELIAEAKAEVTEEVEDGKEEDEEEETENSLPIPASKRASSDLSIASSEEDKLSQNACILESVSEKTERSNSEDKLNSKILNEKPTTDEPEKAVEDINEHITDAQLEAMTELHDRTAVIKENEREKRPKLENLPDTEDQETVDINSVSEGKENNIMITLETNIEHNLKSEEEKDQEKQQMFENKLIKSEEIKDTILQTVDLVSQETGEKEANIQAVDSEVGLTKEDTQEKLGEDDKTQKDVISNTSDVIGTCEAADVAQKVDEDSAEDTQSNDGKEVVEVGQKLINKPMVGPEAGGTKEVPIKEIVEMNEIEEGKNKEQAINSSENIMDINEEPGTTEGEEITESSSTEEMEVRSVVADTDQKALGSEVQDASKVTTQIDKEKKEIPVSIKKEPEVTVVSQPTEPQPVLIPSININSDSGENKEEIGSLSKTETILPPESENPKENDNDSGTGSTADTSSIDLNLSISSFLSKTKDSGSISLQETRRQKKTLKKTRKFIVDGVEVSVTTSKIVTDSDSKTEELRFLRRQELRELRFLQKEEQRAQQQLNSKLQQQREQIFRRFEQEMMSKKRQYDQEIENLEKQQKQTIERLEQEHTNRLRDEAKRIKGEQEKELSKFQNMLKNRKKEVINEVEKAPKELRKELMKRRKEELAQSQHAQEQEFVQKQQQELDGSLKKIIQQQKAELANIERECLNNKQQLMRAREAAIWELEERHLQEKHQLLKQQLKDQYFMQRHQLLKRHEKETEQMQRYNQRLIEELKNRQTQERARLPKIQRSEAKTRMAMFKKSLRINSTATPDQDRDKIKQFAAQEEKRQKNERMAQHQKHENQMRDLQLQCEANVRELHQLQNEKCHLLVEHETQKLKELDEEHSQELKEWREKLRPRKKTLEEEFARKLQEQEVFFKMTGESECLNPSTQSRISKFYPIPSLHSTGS
T4 sequence (P14625 22-803): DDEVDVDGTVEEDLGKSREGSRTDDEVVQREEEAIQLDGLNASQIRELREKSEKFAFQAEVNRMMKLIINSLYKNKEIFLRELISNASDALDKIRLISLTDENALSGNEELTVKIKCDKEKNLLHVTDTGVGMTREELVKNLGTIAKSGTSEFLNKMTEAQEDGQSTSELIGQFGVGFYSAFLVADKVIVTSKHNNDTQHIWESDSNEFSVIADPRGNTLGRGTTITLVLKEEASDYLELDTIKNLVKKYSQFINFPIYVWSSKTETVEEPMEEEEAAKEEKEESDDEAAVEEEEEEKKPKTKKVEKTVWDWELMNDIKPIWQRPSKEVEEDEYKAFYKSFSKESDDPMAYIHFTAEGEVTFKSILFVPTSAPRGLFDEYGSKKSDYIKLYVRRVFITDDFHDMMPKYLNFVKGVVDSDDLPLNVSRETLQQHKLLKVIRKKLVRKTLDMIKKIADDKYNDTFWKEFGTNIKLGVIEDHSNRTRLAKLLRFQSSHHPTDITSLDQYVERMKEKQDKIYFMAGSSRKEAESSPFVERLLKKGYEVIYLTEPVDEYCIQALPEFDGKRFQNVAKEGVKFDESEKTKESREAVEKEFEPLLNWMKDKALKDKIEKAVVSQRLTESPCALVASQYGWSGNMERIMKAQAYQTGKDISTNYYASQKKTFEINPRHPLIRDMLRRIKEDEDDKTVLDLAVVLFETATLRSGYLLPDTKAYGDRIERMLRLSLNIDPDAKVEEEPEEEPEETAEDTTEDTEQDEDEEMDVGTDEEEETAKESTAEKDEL

SMILES: COc1cc(Nc2ncc3c(C)nc(-c4cc5ccccc5[nH]4)n3n2)cc(OC)c1OC [GW869516X]
IC50 ([1]; CSNK2A2, replicate 1, read-out: NanoBRET Rep1): 135 nM | IC50 ([1]; CSNK2A2, replicate 2, read-out: NanoBRET Rep2): 503 nM | IC50 ([1]; HEK293T cells, in-cell target engagement, read-out: IC50 CSNK2A2 NanoBRET): 319 nM | Kinobeads Data [2]: no target | Kinobeads Data [3]: no target

Relative Intensity 0.3nM ([4]; 0.3nM compound, DMSO = 1): 1.008 | Relative Intensity 1nM ([4]; 1nM compound, DMSO = 1): 0.9404 | Relative Intensity 3nM ([4]; 3nM compound, DMSO = 1): 0.9819 | Relative Intensity 10nM ([4]; 10nM compound, DMSO = 1): 0.932 | Relative Intensity 30nM ([4]; 30nM compound, DMSO = 1): 0.8034 | Relative Intensity 100nM ([4]; 100nM compound, DMSO = 1): 0.7942 | Relative Intensity 300nM ([4]; 300nM compound, DMSO = 1): 0.6618 | Relative Intensity 1000nM ([4]; 1000nM compound, DMSO = 1): 0.5702 | Kd ([4]; EC50 with Correction, doses in nM, read-out: apparent Kd): 212 nM | EC50 ([4]; eight-dose curve fit, doses in nM): 230 nM
SMILES: CCn1c(-c2nonc2N)nc2c(C#CC(C)(C)O)nc(OCCN)cc21 [GSK902056A]

SMILES: C[C@]12O[C@H](C[C@]1(O)CO)n1c3ccccc3c3c4c(c5c6ccccc6n2c5c31)CNC4=O [Lestaurtinib]
potency estimated from few doses [5]: 979 nM | potency estimated from few doses [6]: 207 nM and 689 nM | potency estimated from few doses [7]: 161 nM and 261 nM | potency estimated from few doses [8]: 526 nM | potency estimated from few doses [9]: 268 nM | potency estimated from few doses [10]: 772 nM
